The text below walks through data of US6245801A, “Branched alkyl pyrrolidine-3-carboxylic acids” (Warner-Lambert Company, priority 2000, dated 2001).

For test [1], the target named is T1, α2δ subunit of a calcium channel (Sus scrofa, UniProt A0A287BIN3).
T1 construct: α2δ subunit derived from porcine brain tissue; from tissue; host or cells: porcine brain tissue
As to the kind of experiment: [3H]gabapentin (GAP) radioligand binding assay, α2δ subunit. On the set-up: species or system porcine (brain tissue).

The subject of test [2] is Sys L. As to the kind of experiment: Sys L. The following applies: Table I.
Test [3] relates to carrageenin-induced hyperalgesia. As to the kind of experiment: CITH / carrageenin-induced hyperalgesia. In kind it is in vivo, rat (male Sprague-Dawley). The following applies: for CITH % MPE 1 h / CITH % MPE 2 h: Table I; for percent of maximum possible effect (MPE): 30 mg/kg orally. As to the method:
Carrageenin-Induced Hyperalgesia
Nociceptive pressure thresholds were measured in the rat paw pressure test using an analgesymeter (Randall-Selitto method: Randall L. O. and Selitto J. J., "A method for measurement of analgesic activity on inflamed tissue," Arch. Int. Pharmacodyn., 1957;4:409-419). Male Sprague-Dawley rats (70-90 g) were trained on this apparatus before the test day. Pressure was gradually applied to the hind paw of each rat and nociceptive thresholds were determined as the pressure (g) required to elicit paw withdrawal. A cutoff point of 250 g was used to prevent any tissue damage to the paw. On the test day, two to three baseline measurements were taken before animals were administered 100 μL of 2% carrageenin by intraplantar injection into the right hind paw. […] Animals were dosed with either gabapentin ([…].), morphine (3 mg/kg, s.c.) or saline at 3.5 hours after carageenin and nociceptive thresholds were examined at 4, 4.5, and 5 hours postcarrageenin.
(R)-2-Aza-spiro[4.5]decane-4-carboxylic acid hydrochloride was tested in the above carrageenan-induced hyperalgesia model. The compound was dosed orally at 30 mg/kg, and 1 hour postdose gave a percent of maximum possible effect (MPE) of 53%. At 2 hours postdose, it gave only 4.6% of MPE.

The test system of test [4] is DBA/2 mice. As to the kind of experiment: DBA2 mouse model of anticonvulsant efficacy (sound-induced seizures). The class given is in vivo, mouse (male DBA/2). The following applies: time not printed. As to the method:
DBA2 Mouse Model of Anticonvulsant Efficacy
All procedures were carried out in compliance with the NIH Guide for the Care and Use of Laboratory Animals under a protocol approved by the Parke-Davis Animal Use Committee. Male DBA/2 mice, 3 to 4 weeks old were obtained from Jackson Laboratories Bar Harbour, Me. Immediately before anticonvulsant testing, mice were placed upon a wire mesh, 4 inches square, suspended from a steel rod. The square was slowly inverted through 180° and mice observed for 30 seconds. Any mouse falling from the wire mesh was scored as ataxic (Coughenour L. L., McLean J. R., Parker R. B., "A new device for the rapid measurement of impaired motor function in mice," Pharm. Biochem. Behav., 1977;6(3):351-3). Mice were placed into an enclosed acrylic plastic chamber (21 cm height, approximately 30 cm diameter) with a high-frequency speaker (4 cm diameter) in the center of the top lid. An audio signal generator (Protek model B-810) was used to produce a continuous sinusoidal tone that was swept linearly in frequency between 8 kHz and 16 kHz once each 10 msec. The average sound pressure level (SPL) during stimulation was approximately 100 dB at the floor of the chamber. Mice were placed within the chamber and allowed to acclimatize for one minute. DBA/2 mice in the vehicle-treated group responded to the sound stimulus (applied until tonic extension occurred, or for a maximum of 60 sec) with a characteristic seizure sequence consisting of wild running followed by clonic seizures, and later by tonic extension, and finally by respiratory arrest and death in 80% or more of the mice. In vehicle-treated mice, the entire sequence of seizures to respiratory arrest lasts approximately 15 to 20 seconds. The incidence of all the seizure phases in the drug-treated and vehicle-treated mice was recorded, and the occurrence of tonic seizures were used for calculating anticonvulsant ED50 values by probit analysis (Litchfield J. T., Wilcoxon F. "A simplified method for evaluating dose-effect experiments," J. Pharmacol., 1949;96:99-113). Mice were used only once for testing at each dose point. Groups of DBA/2 mice (n=5-10 per dose) were tested for sound-induced seizure responses 2 hours (previously determined time of peak effect) after given drug orally. All drugs in the present study were dissolved in distilled water and given by oral gavage in a volume of 10 mL/kg of body weight. Compounds that are insoluble will be suspended in 1% carboxymethocellulose. Doses are expressed as weight of the active drug moiety.

In test [5] the test system is Vogel. As to the kind of experiment: Vogel. The class given is in vivo. The following applies: relative to C1-1008.
For test [6], the system named is NA Release. As to the kind of experiment: NA Release, % inhibition. Conditions: @ 100 μM.

T1 sequence (A0A287BIN3 entry or part of it): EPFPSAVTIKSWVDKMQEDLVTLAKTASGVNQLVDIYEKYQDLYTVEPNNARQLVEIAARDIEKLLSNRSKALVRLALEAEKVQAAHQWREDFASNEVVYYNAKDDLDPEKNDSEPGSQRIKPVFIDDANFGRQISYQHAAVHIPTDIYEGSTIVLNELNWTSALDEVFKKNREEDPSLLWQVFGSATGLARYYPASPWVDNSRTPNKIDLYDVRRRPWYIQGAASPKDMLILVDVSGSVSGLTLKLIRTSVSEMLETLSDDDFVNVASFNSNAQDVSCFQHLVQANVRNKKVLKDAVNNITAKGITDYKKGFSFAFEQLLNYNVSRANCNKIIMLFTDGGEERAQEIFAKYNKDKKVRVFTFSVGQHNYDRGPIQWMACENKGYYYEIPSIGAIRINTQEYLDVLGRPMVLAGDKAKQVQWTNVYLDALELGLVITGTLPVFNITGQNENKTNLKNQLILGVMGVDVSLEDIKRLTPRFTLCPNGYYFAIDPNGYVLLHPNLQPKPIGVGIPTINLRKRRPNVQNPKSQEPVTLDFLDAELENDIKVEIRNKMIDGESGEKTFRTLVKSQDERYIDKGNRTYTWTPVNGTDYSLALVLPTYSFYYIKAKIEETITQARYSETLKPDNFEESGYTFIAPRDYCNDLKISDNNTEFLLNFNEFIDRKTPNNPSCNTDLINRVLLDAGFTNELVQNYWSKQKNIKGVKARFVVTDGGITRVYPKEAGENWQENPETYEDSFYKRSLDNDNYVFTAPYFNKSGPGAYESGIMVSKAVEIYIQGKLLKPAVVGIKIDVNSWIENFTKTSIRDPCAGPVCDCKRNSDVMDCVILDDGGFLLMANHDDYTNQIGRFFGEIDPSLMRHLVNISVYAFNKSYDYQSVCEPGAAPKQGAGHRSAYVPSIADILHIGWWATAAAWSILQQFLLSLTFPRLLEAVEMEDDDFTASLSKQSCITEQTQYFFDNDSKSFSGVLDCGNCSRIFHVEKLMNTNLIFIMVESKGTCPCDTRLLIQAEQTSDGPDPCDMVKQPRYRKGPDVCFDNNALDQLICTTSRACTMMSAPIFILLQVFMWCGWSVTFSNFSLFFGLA

On to `CC(C)C[C@H](CN)CC(=O)O` [reference compound], for which the IC50 in test [1] stood at 0.087 µM; in test [2] it was 193 µM. The “CITH % MPE 1 h” value in test [3] was determined as 52.5 % MPE. In test [3], the “CITH % MPE 2 h” value came to 50.1 % MPE. Besides, the “DBA 2 % Protect (time)” value in test [4] (first value of the column) and in test [4] (second value of the column) was 100% throughout. The “Vogel % of C1-1008” value in test [5] is 100 % of C1-1008.
For the compound `CC(C)C[C@@H]1CNC[C@H]1C(=O)O`, in test [6], the “NA Release % Inhibition” value was 8%. For the same compound, the “Vogel % of C1-1008” value in test [5] is -0.63 % of C1-1008.
With `Cl.O=C(O)[C@H]1CNCC12CCCCC2` [(R)-2-Aza-spiro[4.5]decane-4-carboxylic acid hydrochloride], the IC50 was 0.12 µM in test [1] and more than 10000 µM in test [2]. The “percent of maximum possible effect (MPE)” value in test [3] (1 hour postdose) is given as 53%; in test [3] (2 hours postdose) it was 4.6%. For the same compound, in test [3], the “CITH % MPE 1 h” value stood at 53 % MPE. Also, the “CITH % MPE 2 h” value in test [3] is on record as 4.6 % MPE. The “DBA 2 % Protect (time)” value in test [4] (first value of the column) and in test [4] (second value of the column) was 20% each time.
`C[C@H]1CNC[C@@H]1C(=O)O` (relative stereo): the IC50 in test [1] was found to be 3.1 µM.
In the case of `CC1(C)CNCC1C(=O)O` (racemic), the IC50 in test [1] was 1.19 µM.
For the compound `CC(C)C[C@H]1CNC[C@@H]1C(=O)O` (stereo in doubt), in test [3], the “CITH % MPE 1 h” value came out at 3 % MPE and the “CITH % MPE 2 h” value is -15 % MPE. For the same compound, the “DBA 2 % Protect (time)” value in test [4] (first value of the column) stood at 0%. Also, the “DBA 2 % Protect (time)” value in test [4] (second value of the column) was determined as 0%.
Regarding `NCC1(CC(=O)O)CCCCC1` [reference compound], the IC50 in test [2] came out at 25 µM. For the same compound, in test [3], the “CITH % MPE 1 h” value is 48.9 % MPE and the “CITH % MPE 2 h” value was found to be 19.9 % MPE. The “DBA 2 % Protect (time)” value in test [4] (first value of the column) was found to be 100%. Besides, the “Vogel % of C1-1008” value in test [5] was 63.7 % of C1-1008.
For `CC(C)C[C@H]1CNC[C@H]1C(=O)O` (stereo in doubt) [Example 1, (cis)-4-Isobutyl-pyrrolidine-3-carboxylic acid], the IC50 in test [1] came to 0.135 µM.
Consider `CCCC[C@H]1CNC[C@@H]1C(=O)O` (relative stereo), for which, in test [1], the IC50 is 0.064 µM.
With `CC(C)[C@H]1CNC[C@@H]1C(=O)O` (relative stereo), the IC50 in test [1] came out at 0.543 µM.
Regarding `CC(C)C[C@@H]1CNC[C@@H]1C(=O)O` (stereo in doubt), the IC50 in test [1] is 0.7 µM. Also, in test [3], the “CITH % MPE 1 h” value is listed as 23 % MPE and the “CITH % MPE 2 h” value amounted to 3.3 % MPE. Further, in test [4] (first value of the column), the “DBA 2 % Protect (time)” value was found to be 0%. Also, the “DBA 2 % Protect (time)” value in test [4] (second value of the column) worked out at 0%.
Consider `CC(C)C[C@H]1CNC[C@@H]1C(=O)O`, for which the “NA Release % Inhibition” value in test [6] was 16%. The figures for the “DBA 2 % Protect (time)” value in test [4] (first value of the column) and in test [4] (second value of the column) were 20% and 40%, respectively. In addition, the “Vogel % of C1-1008” value in test [5] is 0.63 % of C1-1008.
For `CCC[C@H]1CNC[C@@H]1C(=O)O` (relative stereo), the IC50 in test [1] was found to be 0.03 µM.
